Experiments:
[1] = molecular target: PDGFRα (Homo sapiens, UniProt P16234); assay: Kinase inhibition activity test, isotope labeling: PDGFRα; assay type: biochemical; conditions: test compound at a concentration of 10 μM; for inhibition at 10 µM: read-out: Activity inhibition rate PDGFRα (h)
Procedure: (§1) The purpose of this experiment was to test the inhibitory activity of the compound of the invention for in vitro kinase with the isotope labeling method (the γ phosphate group on ATP was labeled). In this experiment, the in vitro activity inhibition of such kinases as FLT3, VEGFR2, FLT1, FLT4, RET, c-RAF, B-RAF, c-KIT, PDGFα, PDGFβ, FGFR2, FGFR1, EphA2, EphB2, SRC, ABL, ALK and Met was tested respectively. Staurosporine was reference molecule (or referred to as positive control). The kinase inhibition activity of the test compound was expressed by half-inhibitory concentration (IC50) or the kinase activity inhibition rate of the test compound at a concentration of 10 μM. The IC50 value could be obtained by calculating the kinase activity inhibition rate of the test compound at different concentrations.
(§2) 20 mM 3-(N-morpholinyl)propanesulfonic acid (MOPS); 1 mM ethylenediaminetetraacetic acid (EDTA), 0.01% Brij 35 (Brij-35), 5% glycerol, 0.1% mercaptoethanol, 1 mg/mL bovine serum albumin (BSA), 10 mM manganous dichloride solution (MnCl2), 0.1 mg/mL glutamic acid/tyrosine (4:1) polypeptide (poly(Glu, Tyr)4:1), 50 μM EAIYAAPFAKKK (substrate of FLT3), 0.33 mg/mL myelin basic protein (substrate of VEGFR2), 250 μM KKKSPGEYVNIEFG (substrate of FLT1(h)), 500 μM GGEEEEYFELVKKKK (substrate of FLT4(h)), 250 μM KKKSPGEYVNIEFG (substrate of RET), 0.66 mg/mL myelin basic protein (substrate of C-RAF), 250 μM GGMEDIYFEFMGGKKK (substrate of c-Kit), 250 μM GGMEDIYFEFMGGKKK (substrate of PDGFα), 250 μM KKKSPGEYVNIEFG (substrate of FGFR1), […] GGEEEEYFELVKKKK (substrate of SRC), 50 μM EAIYAAPFAKKK (substrate of ABL), 250 μM KKKSPGEYVNIEFG (substrate of ALK), 250 μM KKKSPGEYVNIEFG (substrate of Met(h)), 10 mM magnesium acetate and γ-^33 P-ATP solution, stop buffer (3% phosphate buffer), washing buffer (75 mM phosphate solution), methanol, Filtermat A membrane, FLT3, VEGFR2, FLT3, VEGFR2, FLT1, FLT4, RET, c-RAF, B-RAF, c-KIT, PDGFRα, PDGFRβ, FGFR2, FGFR1, EphA2, EphB2, SRC, ABL, ALK, Met and other kinases, and the test compounds.
(§3) Buffers (8 mM MOPS with pH value of 7.0, 0.2 mM EDTA and 10 mM MnCl2), (5-10 mU) kinases to be tested (FLT3, VEGFR2, FLT1, FLT4, RET, c-RAF, B-RAF, c-KIT, PDGFRα, PDGFRβ, FGFR2, FGFR1, EphA2, EphB2, SRC, ABL, ALK and Met), substrates of kinases to be tested (refer to experimental materials), 10 mM magnesium acetate and γ-^33 P-ATP solution, and test compounds at different concentrations were added to a reaction tube orderly. […] Reaction was terminated with 5 μL 3% phosphate buffer finally, and 10 μL reaction solution was titrated to the Filtermat A membrane; solution was washed for 3 times with 75 mM phosphate solution with each time lasting 5 minutes, and then washed once with methanol. Finally, the Filtermat A membrane was dried, and scintillation counting was performed on the membrane, with scintillation count reflecting the phosphorylation degree of the substrates, so that the activity inhibition of kinase could be characterized.

[2] = molecular target: T1, FLT3 (Homo sapiens, UniProt P36888); assay: Kinase inhibition activity test, isotope labeling (γ-33P-ATP): FLT3; assay type: biochemical; conditions: test compound at a concentration of 10 μM; for inhibition at 10 µM: read-out: Activity inhibition rate Flt3 (h)
T1 sequence (P36888 27-993): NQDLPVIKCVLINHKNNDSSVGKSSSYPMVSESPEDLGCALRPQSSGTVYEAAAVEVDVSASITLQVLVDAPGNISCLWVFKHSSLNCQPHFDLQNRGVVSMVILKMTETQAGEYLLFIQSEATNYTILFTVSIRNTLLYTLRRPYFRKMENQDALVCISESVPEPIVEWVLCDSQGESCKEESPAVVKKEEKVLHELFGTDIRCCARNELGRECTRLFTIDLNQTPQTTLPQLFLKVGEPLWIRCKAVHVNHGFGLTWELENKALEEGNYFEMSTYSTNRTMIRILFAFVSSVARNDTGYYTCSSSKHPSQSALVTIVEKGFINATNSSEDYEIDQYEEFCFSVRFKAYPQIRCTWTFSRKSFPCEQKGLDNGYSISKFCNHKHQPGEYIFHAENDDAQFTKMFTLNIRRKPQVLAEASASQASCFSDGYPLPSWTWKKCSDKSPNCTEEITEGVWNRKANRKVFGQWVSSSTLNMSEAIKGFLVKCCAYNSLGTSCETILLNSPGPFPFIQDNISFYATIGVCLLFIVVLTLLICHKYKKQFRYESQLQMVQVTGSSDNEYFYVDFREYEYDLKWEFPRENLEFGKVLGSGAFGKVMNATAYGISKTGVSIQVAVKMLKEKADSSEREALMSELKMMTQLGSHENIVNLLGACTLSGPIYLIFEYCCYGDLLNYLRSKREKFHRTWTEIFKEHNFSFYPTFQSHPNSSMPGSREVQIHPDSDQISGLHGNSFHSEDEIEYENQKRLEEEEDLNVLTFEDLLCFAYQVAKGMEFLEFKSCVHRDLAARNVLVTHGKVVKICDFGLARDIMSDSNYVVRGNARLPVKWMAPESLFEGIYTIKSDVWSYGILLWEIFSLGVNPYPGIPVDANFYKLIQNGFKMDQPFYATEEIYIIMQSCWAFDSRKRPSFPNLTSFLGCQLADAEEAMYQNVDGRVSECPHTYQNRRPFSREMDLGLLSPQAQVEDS
Procedure: as §1, §2, §3

Chain of PDGFRα (P16234 24-1089): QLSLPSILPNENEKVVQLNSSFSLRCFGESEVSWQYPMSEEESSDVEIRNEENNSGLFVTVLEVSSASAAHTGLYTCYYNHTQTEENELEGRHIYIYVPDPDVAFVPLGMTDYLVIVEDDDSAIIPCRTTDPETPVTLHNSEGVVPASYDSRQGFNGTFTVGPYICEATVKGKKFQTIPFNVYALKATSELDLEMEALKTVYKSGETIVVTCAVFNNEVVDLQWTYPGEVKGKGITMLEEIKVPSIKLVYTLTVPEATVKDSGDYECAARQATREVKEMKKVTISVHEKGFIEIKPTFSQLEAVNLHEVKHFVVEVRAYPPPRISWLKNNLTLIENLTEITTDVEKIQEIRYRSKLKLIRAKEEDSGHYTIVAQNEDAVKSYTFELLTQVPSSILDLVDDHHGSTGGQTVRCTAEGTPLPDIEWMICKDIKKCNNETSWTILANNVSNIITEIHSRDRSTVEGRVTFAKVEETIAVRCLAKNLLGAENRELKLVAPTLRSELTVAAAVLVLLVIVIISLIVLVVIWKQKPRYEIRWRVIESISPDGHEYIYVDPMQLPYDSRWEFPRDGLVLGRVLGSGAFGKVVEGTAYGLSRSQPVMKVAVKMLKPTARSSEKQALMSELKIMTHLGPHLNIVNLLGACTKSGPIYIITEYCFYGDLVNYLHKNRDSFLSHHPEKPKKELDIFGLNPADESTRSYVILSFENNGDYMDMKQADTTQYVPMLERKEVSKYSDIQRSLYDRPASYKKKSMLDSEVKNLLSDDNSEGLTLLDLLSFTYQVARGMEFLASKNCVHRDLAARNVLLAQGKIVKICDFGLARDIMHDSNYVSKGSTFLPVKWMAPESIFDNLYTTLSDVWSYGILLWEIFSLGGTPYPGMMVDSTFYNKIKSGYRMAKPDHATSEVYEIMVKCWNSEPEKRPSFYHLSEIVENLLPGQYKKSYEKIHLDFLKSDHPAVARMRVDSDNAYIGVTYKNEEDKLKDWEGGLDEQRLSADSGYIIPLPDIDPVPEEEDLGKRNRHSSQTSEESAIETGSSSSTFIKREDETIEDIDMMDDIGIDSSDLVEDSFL

inhibition at 10 µM [1] | inhibition at 10 µM [2] | Activity inhibition rate PDGFRα (h) [1] | Activity inhibition rate Flt3 (h) [2] | Compound
> 50% | > 90% | – | – | O=C(Nc1ccc(Sc2ncnc3[nH]ncc23)cc1)Nc1ccc(C(F)(F)F)cc1 [4c-1]
– | – | >50% | >90% | O=C(Nc1ccc(Sc2ncnc3[nH]ncc23)cc1)Nc1cccc(C(F)(F)F)c1 [4c-2]

The next lines start with the compound.

Compound | inhibition at 10 µM [1] | inhibition at 10 µM [2] | Activity inhibition rate PDGFRα (h) [1] | Activity inhibition rate Flt3 (h) [2]
Cc1cc(C)c(NC(=O)Nc2ccc(NC(=O)N3C=NC=C4NNC=C43)cc2)c(C)c1 [4b-7, 1-(4-(1H-pyrazolopyrimidine-4-amido)phenyl)-3-(2,4,6-trimethylphenyl)urea] | > 30% | 91% | – | –
CC(C)(C)c1cc(NC(=O)Nc2ccc(Sc3ncnc4[nH]ncc34)cc2)no1 [4c-3, 1-(4-(1H-pyrazolopyrimidine-4-sulfydryl)phenyl)-3-(5-tert-butylisoxazol-3-yl)urea] | – | – | >50% | >90%
CC(C)n1ncc2c(Oc3ccc(NC(=O)Nc4cc(C(C)(C)C)on4)cc3)ncnc21 [5a-4, 1-(5-tert-butylisoxazol-3-yl)-3-(4-(1-isopropyl-(1H-pyrazolopyrimidine-4-yl)oxy)phenyl)urea] | > 30% | > 90% | – | –

From US9828375B2, “4-position substituted pyrazolopyrimidine derivative, and use thereof in drug preparation” (Guangxi Wuzhou Pharmaceuticals (Group) Co., Ltd., priority 2012, dated 2017)
